Data: patent publication US6649631B1, “Compositions and methods for treating bone deficit conditions” (The Board of Regents of the University of Texas System, priority 1999, dated 2003)

What was measured:
BMP2 promoter = assay: High throughput screening: BMP-2 promoter luciferase reporter in 2T3-BMP-2-LUC cells; assay type: cell-based, mouse
Text: A rapid throughput screening test for compounds capable of stimulating expression of a reporter gene linked to a BMP promoter (a surrogate for the production of bone morphogenetic factors that are endogenously produced) is described in WO96/38590 published Dec. 5, 1996, the contents of which are incorporated herein by reference. This assay is also described as a portion of a study of immortalized murine osteoblasts (derived from a mouse expressing a transgene composed of a BMP2 promoter driving expression of T-antigen) in Ghosh-Choudhery, N. et al. Endocrinology (1996) 137:331-39. In this study, the immortalized cells were stably transfected with a plasmid containing a luciferase reporter gene driven by a mouse BMP2 promoter (−2736/114 bp), and responded in a dose-dependent manner to recombinant human BMP2.
Briefly, the assay utilizes cells transformed permanently or transiently with constructs in which the promoter of a bone morphogenetic protein, specifically BMP2 or BMP4, is coupled to a reporter gene, typically luciferase. These transformed cells are then evaluated for the production of the reporter gene product; compounds that activate the BMP promoter will drive production of the reporter protein, which can be readily assayed. Over 40,000 compounds have been subjected to this rapid screening technique, and only a very small percentage are able to elicit a level of production of luciferase 5-fold greater than that produced by vehicle. […] The active compounds (“BMP promoter-active compounds” or “active compounds”) are useful in promoting bone or cartilage growth, and thus in the treatment of vertebrates in need of bone or cartilage growth.
Several tens of thousands of compounds were tested in the assay system set forth in WO 96/38590, published Dec. 5, 1996, and incorporated herein by reference. […]
The treated cells were incubated for 24 hours at 37° C. and 5% CO2. […] Luminescence was measured on an automated 96-well luminometer, and was expressed as either picograms of luciferase activity per well or as picograms of luciferase activity per microgram of protein. […]

TMC-23 cells = assay: Chondrogenic activity: alkaline phosphatase (ALP) activity in TMC-23 cells; assay type: cell-based, mouse; settings: day 2, 10^−9 M
Procedure: For measurement of alkaline phosphatase (ALP) activity, the technique of LF Bonewald et al. J. Biol Chem (1992) 267:8943-49, was employed. Briefly, TMC-23 cells were plated in 96 well microtiter plates in DMEM containing 10% FCS at 4×10^3 cells/well. Two days after plating, the cells were confluent and the medium was replaced with fresh medium containing 10% FCS and different concentrations of compounds or recombinant BMP-2. After an additional 2 or 5 days incubation, the plates were washed twice with PBS, and then lysing solution (0.05% Triton X-100) was added (100 μl/well). The cells were lysed by three freeze-thaw cycles of −70° C. (30 min), followed by 37° C. (30 min with shaking). Twenty microliters of cell lysates were assayed with 80 μl of 5 mM p-nitrophenol phosphate in 1.5 M 2-amino-2-methyl-propanol buffer, pH 10.3 (Sigma ALP kit, Sigma Chemical Co., St. Louis, Mo.) for 10 min at 37° C. The reaction was stopped by the addition of 100 μl of 0.5 M NaOH. The spectrophotometric absorbance at 405 nm was compared to that of p-nitrophenol standards to estimate ALP activity in the samples. The protein content of the cell lysates was determined by the Bio-Rad protein assay kit (Bio-Rad, Hercules, Calif.). Specific activity was calculated using these two parameters.

Swiss white mice = assay: In vivo assay of effects of compounds on murine calvarial bone growth; parameters: species or system mouse; settings: as compared to a vehicle control
Procedure: Male ICR Swiss white mice, aged 4-6 weeks and weighing 13-26 gm, are employed, using 4-5 mice per group. The calvarial bone growth assay is performed as described in PCT application WO 95/24211. Briefly, the test compound or appropriate control vehicle is injected into the subcutaneous tissue over the right calvaria of normal mice. Typically, the control vehicle is the vehicle in which the compound was solubilized, and is PBS containing 5% DMSO or is PBS containing Tween (2 μl/10 ml). The animals are sacrificed on day 14 and bone growth measured by histomorphometry. Bone samples for quantitation are cleaned from adjacent tissues and fixed in 10% buffered formalin for 24-48 hours, decalcified in 14% EDTA for 1-3 weeks, processed through graded alcohols; and embedded in paraffin wax. Three to five μm sections of the calvaria are prepared, and representative sections are selected for histomorphometric assessment of the effects on bone formation and bone resorption. Sections are measured by using a camera lucida attachment to trace directly the microscopic image onto a digitizing plate. Bone changes are measured on sections cut 200 μm apart, over 4 adjacent 1×1 mm fields on both the injected and noninjected sides of the calvaria. […]
Similar results are obtained when new bone width in microns is measured. […]

neonatal mouse calvaria = assay: Ex vivo (neonatal mouse) calvarial bone growth assay; assay type: cell-based
Procedure: This assay is similar to that described by Gowen M. & Mundy G. J Immunol (1986) 136:2478-82. Briefly, four days after birth, the front and parietal bones of ICR Swiss white mouse pups are removed by microdissection and split along the sagittal suture. The bones are incubated in BGJb medium (Irvine Scientific, Santa Ana, Calif.) plus 0.02% (or lower concentration) β-methylcyclodextrin, wherein the medium also contains test or control substances, at 37° C. in a humidified atmosphere of 5% CO2 and 95% air for 96 hours.
Following this, the bones are removed from the incubation media and fixed in 10% buffered formalin for 24-48 hours, decalcified in 14% EDTA for 1 week, processed through graded alcohols; and embedded in paraffin wax. Three μm sections of the calvaria are prepared. Representative sections are selected for histomorphometric assessment of bone formation and bone resorption. Bone changes are measured on sections cut 200 μm apart. Osteoblasts and osteoclasts are identified by their distinctive morphology.
A number of compounds, in particular, those studied in connection with lead compounds classified as hydrazone/hydrazides (H) exemplified by 59-0045, benzothiazoles (T) exemplified by 59-0104, bis-pyridines (P) exemplified by 59-0145, and quinolines/quinoxalines (Q) exemplified by 59-0197, were tested in the ex vivo calvarial assay described hereinabove.
The scores are assigned to bone formation on the ectocranial periosteal surface. The area immediately surrounding midline suture is excluded from analysis.
In all samples, toxicity, ectopic new or woven bone formation associated with osteoblasts, and osteoblast size as reflections of relative activity are noted.

ovariectomized rats = assay: Stimulation of bone growth in ovariectomized rats (OVX assay); assay type: in vivo, rat
Procedure: Lead compounds also be tested in acute ovariectomized animals (prevention model) using an in vivo dosing assay. Such assays may also include an estrogen-treated group as a control. An exemplary subcutaneous dosing assay is performed as follows:
In a typical study, 80 three-month-old female Sprague-Dawley rats are weight-matched and divided into eight groups, with ten animals in each group. This includes a baseline control group of animals sacrificed at the initiation of the study; three control groups (sham ovariectomized (sham OVX)+vehicle only; ovariectomized (OVX)+vehicle only; PBS-treated OVX); and a control OVX group that is administered a compound known to promote bone growth. Three dosage levels of the compound to be tested are administered to the remaining three groups of OVX animals.
Since ovariectomy (OVX) induces hyperphagia, all OVX animals are pair-fed with sham OVX animals throughout the 35 day study. Briefly, test compound, positive control compound, PBS, or vehicle alone is administered subcutaneously once per day for 35 days. Alternatively, test compound can be formulated in implantable pellets that are implanted for 35 days, or may be administered orally, such as by gastric gavage. All animals, including sham OVX/vehicle and OVX/vehicle groups, are injected intraperitoneally with calcein nine days and two days before sacrifice (two injections of calcein administered each designated day, to ensure proper labeling of newly formed bone). Weekly body weights are determined. At the end of the 35-day cycle, the animals' blood and tissues are processed as described above.
Lead compounds may also be tested in chronic OVX animals (treatment model). An exemplary protocol for treatment of established bone loss in ovariectomized animals that can be used to assess efficacy of anabolic agents may be performed as follows. Briefly, 80 to 100 six month old female, Sprague-Dawley rats are subjected to sham surgery (sham OVX) or ovariectomy (OVX) at time 0, and 10 rats are sacrificed to serve as baseline controls. Body weights are recorded weekly during the experiment. After approximately 6 weeks of bone depletion (42 days), 10 sham OVX and 10 OVX rats are randomly selected for sacrifice as depletion period controls. Of the remaining animals, 10 sham OVX and 10 OVX rats are used as placebo-treated controls. The remaining OVX animals are treated with 3 to 5 doses of test drug for a period of 5 weeks (35 days). As a postitive control, a group of OVX rats can be treated with an agent such as PTH, a known anabolic agent in this model (Kimmel et al. Endocrinology (1993) 132:1577-84). To determine effects on bone formation, the following procedure can be followed. The femurs, tibiae and lumbar vertebrae 1 to 4 are excised and collected. The proximal left and right tibiae are used for pqCT measurements, cancellous bone mineral density (BMD) (gravimetric determination), and histology, while the midshaft of each tibiae is subjected to cortical BMD or histology. The femurs are prepared for pqCT scanning of the midshaft prior to biomechanical testing. With respect to lumbar vertebrae (LV), LV2 are processed for BMD (pqCT may also be performed); LV3 are prepared for undecalcified bone histology; and LV4 are processed for mechanical testing.
The compound 59-0145 was tested at various concentrations in the OVX assay conducted as described above. The increase in bone volume was measured by two different groups; one group found 5 μg/kg/day of 59-0145 gave 21% increase over control whereas the second group found a 71% increase. At 50 μg/kg/day, the first group found a 31% increase, and the second a 54% increase.
In another experiment, 3 month old Sprague Dawley rats were ovariectomized and depleted for six weeks. At the end of the six weeks, treatment was started with subcutaneous administration of compound 59-0145. The treatment continued for 10 weeks. […]

c1ccc(N=NC2=NNc3ccccc3S2)cc1 [Compound 59-0008, 3-phenylazo-1H-4,1,2-benzothiadiazine]
response at maximal activity (BMP2 promoter; at about 3 μM): approximately 175 light emission units | increase of ALP levels compared to the vehicle control (TMC-23 cells): approximately 3 fold | increase in width of new calvarial bone (Swiss white mice): 4 fold

CN(C)c1ccc(C=Cc2cnc3ccccc3n2)cc1 [Compound 59-0019]
activity in the ex vivo calvarial assay, in words (neonatal mouse calvaria): at least some indication of activity

CC(CNc1ccc(C(F)(F)F)cn1)Nc1ccc(C(F)(F)F)cn1 (centres unmarked) [Compound 59-0459]
performance in the screening assay relative to 59-0008 (BMP2 promoter): better than 59-0008

FC(F)(F)c1ccc(NCCNc2ccc(C(F)(F)F)cn2)nc1 [Compound 59-0145]
activity in the ex vivo calvarial assay, in words (neonatal mouse calvaria): consistent moderate activity | increase in bone volume over control (ovariectomized rats; 5 μg/kg/day, first group of measurers): 21% | increase in bone volume over control (ovariectomized rats; 5 μg/kg/day, second group of measurers): 71% | increase in bone volume over control (ovariectomized rats; 50 μg/kg/day, first group of measurers): 31% | increase in bone volume over control (ovariectomized rats; 50 μg/kg/day, second group of measurers): 54% | effect on lumbar vertebrae (ovariectomized rats; 5 and 50 μg/kg/day, FIG. 10): beneficial effect | increase in trabecular bone (proximal tibia) compared to placebo-treated group (ovariectomized rats; chronic OVX rats, depleted 6 weeks, subcutaneous, 10 weeks of treatment, 50-500 μg/kg/day): significant increase

COc1cc(N(C)C)ccc1C=Cc1ccc2ccccc2n1 [Compound 59-0150]
activity in the ex vivo calvarial assay, in words (neonatal mouse calvaria): activity when measured by one group but not the other

N#Cc1ccc(NCCNc2ccc(C(F)(F)F)cn2)nc1 [Compound 59-0483]
performance in the screening assay relative to 59-0008 (BMP2 promoter): better than 59-0008
